{"source": "patent US9409952B2", "about": "“Peptide-compound cyclization method” (Chugai Seiyaku Kabushiki Kaisha, priority 2011, dated 2016)", "key": {"[1]": {"assay": "PAMPA (parallel artificial membrane permeability assay)", "type": "in vitro ADME", "conditions": "PAMPA", "procedure,_shortened": "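Artificial membrane was 10% (w/v) egg lecithin plus 0.5% (w/v) cholesterol in dodecane on a PVDF filter. A 10 mM DMSO stock was added at 0.5% (v/v) to donor buffer (50 mM MOPSO, pH 6.5, 5.0% glycocholic acid). After 18 h at 37 °C, LC/MS or LC/UV gave donor and acceptor levels for Pe.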"}, "[2]": {"assay": "Metabolic stability in human hepatic microsome", "type": "in vitro ADME", "conditions": "microsomes"}, "[3]": {"conditions": "membrane permeation rate (Pe), 50 mM MOPSO buffer pH 6.5 with 5.0% glycocholic acid, 37° C., 18 hours, read-out: iPAMPA Pe"}, "[4]": {"conditions": "pH 7.4, human hepatic microsome, NADPH(+), read-out: CL NADPH(+)"}}, "note": "Read-outs that look alike come from different tables or passages of the source. Starred links: 1 amine or outer side, 2 acyl side, 3 side chain; linkers in the order of their positions; H or OH if unused. Positions of bridges follow the written chain, without caps; N, C: chain ends. Non-standard residues stand in square brackets, D forms with d. Residues, ends and D or L forms follow the SMILES beside them. *: point of attachment. Phe(4-(CH2)5CO) = O=C([C@H](Cc1ccc(CCCCCC(=O)[*:3])cc1)N[*:1])[*:2]; NMePhe(3-Cl) = CN[C@@H](Cc1cccc(Cl)c1)C(=O)O; NMeF = CN[C@@H](Cc1ccccc1)C(=O)O; NMeI = CC[C@H](C)[C@H](NC)C(=O)O; NMeβAla = CN(CCC(=O)[*:2])[*:1]; NMeL = CN[C@@H](CC(C)C)C(=O)O; NMeV = CN[C@H](C(=O)O)C(C)C; NMeA = CN[C@@H](C)C(=O)O; Piperidide = C1CCN(*)CC1; dNMeA = CN[C@H](C)C(=O)O; β3hA = C[C@H](N)CC(=O)O; Sar = CNCC(=O)O; tBu = CC(C)(C)*", "data": [{"smiles": "CC[C@H](C)[C@H](NC(=O)[C@@H](NC(=O)[C@H](Cc1ccccc1)NC(=O)[C@@H]1CC(=O)N[C@H](C(C)C)C(=O)N(C)[C@@H](C)C(=O)N(C)[C@@H](CC(C)C)C(=O)N[C@@H]([C@@H](C)O)C(=O)N(C)CC(=O)N(C)[C@@H](Cc2ccccc2)C(=O)N(C)[C@@H](CC(C)C)C(=O)N(C)[C@@H](Cc2cccc(Cl)c2)C(=O)N(C)[C@@H](CC(C)C)C(=O)N[C@@H](C)C(=O)N1)C(C)C)C(=O)N1CCCCC1", "note": "[DP-949] ([dV][NMeA][NMeL]T[Sar][NMeF][NMeL][NMePhe(3-Cl)][NMeL]ADFVI-Piperidide; lactam N-11)", "values": [{"measurement": "Papp at 18 hours, 50 µM", "setting": "[1]; [3]", "result": 0.11, "unit": "×10⁻⁶ cm/s"}, {"measurement": "microsomal CLint at 1 uM", "setting": "[2]; [4]", "result": 37, "unit": "µL/min/mg"}]}, {"smiles": "CC(C)C[C@@H]1NC(=O)[C@H]([C@@H](C)O)NC(=O)[C@@H]2CCCN2C(=O)[C@H](Cc2ccccc2)NC(=O)[C@H](COC(C)(C)C)NC(=O)[C@H](CC(C)C)N(C)C(=O)[C@H](Cc2ccccc2)NC(=O)[C@@H](C)N(C)C(=O)C[C@H](C)NC(=O)CNC(=O)[C@H](C)N(C)C(=O)[C@H](C)N(C)C1=O", "note": "[DP-752] (cyclo(F[NMeL]S(tBu)FPTL[NMeA][NMeA]G[β3hA][dNMeA]))", "values": [{"measurement": "Papp at 18 hours, 50 µM", "setting": "[1]; pH 6.5", "result": 6.2, "unit": "×10⁻⁶ cm/s"}, {"measurement": "microsomal CLint at 1 uM", "setting": "[2]; human, pH 7.4, CL NADPH(+)", "result": 33, "unit": "µL/min/mg"}]}, {"smiles": "CC(C)C[C@H]1C(=O)N(C)[C@@H](C)C(=O)N[C@@H]([C@@H](C)O)C(=O)N(C)[C@@H](C)C(=O)N[C@H](C(=O)N(C)[C@@H](Cc2ccccc2)C(=O)N(C)[C@@H](Cc2ccccc2)C(=O)N[C@@H](C)C(=O)N2CCCCC2)CC(=O)N(C)CCC(=O)N(C)[C@@H](Cc2ccccc2)C(=O)N(C)[C@@H](CC(C)C)C(=O)N(C)[C@@H](C)C(=O)N[C@@H](C(C)C)C(=O)N1C", "note": "[DP-500] ([NMeβAla][NMeF][NMeL][NMeA]V[NMeL][NMeA]T[NMeA]D[NMeF][NMeF]A-Piperidide; lactam N-10)", "values": [{"measurement": "Papp at 18 hours, 50 µM", "setting": "[1]; [3]", "result": 27, "unit": "×10⁻⁶ cm/s"}, {"measurement": "microsomal CLint at 1 uM", "setting": "[2]; [4]", "result": 28, "unit": "µL/min/mg"}]}, {"smiles": "CC(C)C[C@H]1C(=O)N(C)[C@@H](Cc2ccccc2)C(=O)N[C@H](C(=O)N2CCCCC2)CC(=O)N(C)[C@H](C)C(=O)N[C@@H]([C@@H](C)O)C(=O)N(C)[C@@H](C)C(=O)N(C)[C@@H](Cc2ccccc2)C(=O)N[C@@H](COC(C)(C)C)C(=O)NCC(=O)N1C", "note": "[DP-270] ([dNMeA]T[NMeA][NMeF]S(tBu)G[NMeL][NMeF]D-Piperidide; lactam N-9)", "values": [{"measurement": "Papp at 18 hours, 50 µM", "setting": "[1]; [3]", "result": 22, "unit": "×10⁻⁶ cm/s"}, {"measurement": "microsomal CLint at 1 uM", "setting": "[2]; [4]", "result": 79, "unit": "µL/min/mg"}]}, {"smiles": "CC[C@H](C)[C@H]1C(=O)N[C@H](C(=O)N2CCCCC2)CC(=O)N(C)[C@H](C)C(=O)N[C@@H](Cc2ccccc2)C(=O)N(C)[C@@H](C)C(=O)N(C)[C@@H](CC(C)C)C(=O)N[C@@H]([C@@H](C)O)C(=O)N(C)CC(=O)N(C)[C@@H](C(C)C)C(=O)N[C@@H](C)C(=O)N1C", "note": "[DP-142] ([dNMeA]F[NMeA][NMeL]T[Sar][NMeV]A[NMeI]D-Piperidide; lactam N-10)", "values": [{"measurement": "Papp at 18 hours, 50 µM", "setting": "[1]; pH 6.5", "result": 4, "unit": "×10⁻⁶ cm/s"}, {"measurement": "microsomal CLint at 1 uM", "setting": "[2]; human, pH 7.4, CL NADPH(+)", "result": 22, "unit": "µL/min/mg"}]}, {"smiles": "CC[C@H](C)[C@H]1C(=O)N[C@@H](COC(C)(C)C)C(=O)N(C)[C@@H](Cc2ccccc2)C(=O)N(C)[C@@H](C(C)C)C(=O)N[C@H](C(=O)N2CCCCC2)Cc2ccc(cc2)CCCCCC(=O)N(C)[C@@H](Cc2ccccc2)C(=O)N[C@@H](CC(C)C)C(=O)N(C)[C@@H](CC(C)C)C(=O)N[C@@H]([C@@H](C)O)C(=O)N(C)CC(=O)N1C", "note": "[DP-852] ([NMeF]L[NMeL]T[Sar][NMeI]S(tBu)[NMeF][NMeV][Phe(4-(CH2)5CO)]-Piperidide; lactam N-10)", "values": [{"measurement": "Papp at 18 hours, 50 µM", "setting": "[1]; [3]", "result": 0.7, "unit": "×10⁻⁶ cm/s"}, {"measurement": "microsomal CLint at 1 uM", "setting": "[2]; [4]", "result": 484, "unit": "µL/min/mg"}]}, {"smiles": "CC[C@H](C)[C@H]1C(=O)N(C)[C@@H](Cc2ccccc2)C(=O)N(C)[C@@H](CC(C)C)C(=O)N[C@H](C(=O)N2CCCCC2)CC(=O)N(C)[C@H](C)C(=O)N(C)[C@@H](CC(C)C)C(=O)N[C@@H]([C@@H](C)O)C(=O)N(C)[C@@H](C)C(=O)N[C@@H](C)C(=O)N(C)[C@@H](Cc2ccccc2)C(=O)N[C@@H](CC(C)C)C(=O)N1C", "note": "[DP-244] ([dNMeA][NMeL]T[NMeA]A[NMeF]L[NMeI][NMeF][NMeL]D-Piperidide; lactam N-11)", "values": [{"measurement": "Papp at 18 hours, 50 µM", "setting": "[1]; [3]", "result": 31, "unit": "×10⁻⁶ cm/s"}, {"measurement": "microsomal CLint at 1 uM", "setting": "[2]; [4]", "result": 16, "unit": "µL/min/mg"}]}]}
